Experimental data from US9624167B2, “N-(4-hydroxy-4-methyl-cyclohexyl)-4-phenyl-benzenesulfonamides and N-(4-hydroxy-4-methyl-cyclohexyl)-4-(2-pyridyl)benzenesulfonamides and their therapeutic use” (PIMCO 2664 LIMITED, priority 2013, dated 2017).
Where two headings read alike, the source gives them in different places.

Columns and labels:
[1] = target: T1, hERG (Homo sapiens, UniProt Q12809); assay: hERG Ion Channel Assay (Q-patch, hERG-CHO cells); format: cell-based; conditions: human, CHO cells stably transfected with hERG (hERG-CHO), pH 7.4, 30 μM
T1 construct: expressed in transfected cells; host or cells: Chinese Hamster Ovary cells (hERG-CHO), stably transfected
T1 sequence (Q12809 whole entry): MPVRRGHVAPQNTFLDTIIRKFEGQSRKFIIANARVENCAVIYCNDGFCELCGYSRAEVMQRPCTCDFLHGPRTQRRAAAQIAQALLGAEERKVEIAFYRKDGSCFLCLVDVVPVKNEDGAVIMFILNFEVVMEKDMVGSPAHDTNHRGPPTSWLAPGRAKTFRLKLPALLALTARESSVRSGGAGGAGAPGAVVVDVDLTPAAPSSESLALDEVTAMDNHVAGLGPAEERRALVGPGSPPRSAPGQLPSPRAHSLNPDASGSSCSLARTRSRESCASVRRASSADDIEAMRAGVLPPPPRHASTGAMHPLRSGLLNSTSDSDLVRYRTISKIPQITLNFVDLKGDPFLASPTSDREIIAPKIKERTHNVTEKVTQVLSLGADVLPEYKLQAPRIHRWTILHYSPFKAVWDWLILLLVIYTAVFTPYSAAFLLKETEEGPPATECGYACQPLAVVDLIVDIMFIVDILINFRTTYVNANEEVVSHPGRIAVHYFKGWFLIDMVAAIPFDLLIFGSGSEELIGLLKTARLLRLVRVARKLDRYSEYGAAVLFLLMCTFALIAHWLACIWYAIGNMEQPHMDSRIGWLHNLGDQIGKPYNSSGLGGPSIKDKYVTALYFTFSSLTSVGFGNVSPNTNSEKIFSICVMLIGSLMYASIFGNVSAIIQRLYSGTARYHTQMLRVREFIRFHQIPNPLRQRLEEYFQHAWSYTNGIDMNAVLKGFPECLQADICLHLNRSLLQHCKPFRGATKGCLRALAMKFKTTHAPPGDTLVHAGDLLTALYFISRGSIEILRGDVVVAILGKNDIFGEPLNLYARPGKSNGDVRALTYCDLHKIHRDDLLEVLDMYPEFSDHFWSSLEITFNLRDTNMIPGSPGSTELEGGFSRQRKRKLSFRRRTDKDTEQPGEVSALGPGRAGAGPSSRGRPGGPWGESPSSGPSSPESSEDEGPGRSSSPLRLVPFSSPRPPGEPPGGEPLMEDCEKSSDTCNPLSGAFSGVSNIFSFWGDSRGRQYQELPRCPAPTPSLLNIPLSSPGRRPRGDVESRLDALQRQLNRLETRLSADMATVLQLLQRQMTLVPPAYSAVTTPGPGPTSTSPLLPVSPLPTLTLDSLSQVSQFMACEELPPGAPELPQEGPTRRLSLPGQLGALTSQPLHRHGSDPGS
Procedure: The activity of the compounds against the hERG ion channel was tested. The assay was conducted using the automated path-clamp, Q-patch method using stably transfected Chinese Hamster Ovary cells (hERG-CHO). hERG-CHO cells were cultured in F-12 Kaighn's Nutrient Mixture medium (Invitrogen)+10% FBS at 37° C. for 1-3 days. Cells were kept at 30° C. for 24 to 48 hours prior to patch clamping in order to increase the hERG current amplitude. Subsequently, the cells were harvested by trypsinisation, and kept in Serum Free Medium (SFM) in the Q-patch cell preparation state for up to 6 hours at room temperature before being washed and re-suspended in extracellular solution and applied to the patch clamp sites for data recording.
Patch-clamp voltage protocol: After whole cell configuration was achieved, the cell was held at −80 mV. A 50 millisecond pulse to −40 mV was delivered to measure the leaking current, which was subtracted from the tail current on-line. Then the cell was depolarized to +20 mV for 2 seconds, followed by a one second pulse to −40 mV to reveal hERG tail current. This paradigm was delivered once every 5 seconds to monitor the current amplitude.
Extracellular solution: 137 mM NaCl, 4 mM KCl, 1.8 mM CaCl2, 1 mM MgCl2, 10 mM D(+)-glucose, 10 mM HePES buffer (pH adjusted to 7.4 with NaOH).
After the whole cell configuration was achieved, the extracellular solution (control) was applied first and the cell was stabilized for 2 minutes in extracellular solution. The test compound was then applied from low concentrations to high concentrations cumulatively. The cell was incubated with each test concentration for 5 minutes. During each incubation, the cell was repetitively stimulated using the voltage protocol described above, and the tail current amplitude was continuously monitored.
• (1) Peak tail current >100 pA in control. • (2) Initial run-down <30% and the run-down stops before first application of the test compound. • (3) Leak currents <50% of the control peak tail currents at any time. • (4) rs<20 MΩ throughout the experiment.
The degree of inhibition (%) was obtained by measuring the tail current amplitude, induced by a one second test pulse to −40 mV after a two second pulse to +20 mV, before and after incubation with the test compound. The difference in current was normalized to control and multiplied by 100 in order to obtain the percent inhibition.
Concentration (log) response curves were fitted to a logistic equation (three parameters assuming complete block of the current at very high test compound concentrations) to generate estimates of the 50% inhibitory concentration (IC50). The concentration-response relationship of each compound was constructed from the percentage reductions of current amplitude by sequential concentrations.

[2] = Human Liver Microsomal Stability; format: in vitro ADME; conditions: both sexes, pooled liver microsomes, 1 μM compound
Procedure: Metabolic stability was measured by determining the rate of disappearance of compound in the presence of human liver microsomal preparations, as quantified by liquid chromatography mass-spectrometry and […] mass-spectrometry (LC-MS/MS).
Metabolic stability of test compounds was measured by determination of the rate of disappearance of the compound when incubated in the presence of human liver microsomes. Liver microsomes are prepared from the endoplasmic reticulum of hepatocytes and are the primary source of the most important enzymes (cytochrome P450s) involved in drug metabolism. Study of drug stability in the presence of liver microsomes is accepted as a valuable model permitting rapid prediction of in vivo drug stability.
Human liver microsomes were obtained from a commercial source. Test compounds (1 μM) were incubated with pooled liver microsomes (male and female). Samples were incubated for a 60 minute period and removed at up to 6 time points and analysed by LC-MS/MS for the presence/amount of test compounds.
Microsomes (final protein concentration 0.25 or 0.5 mg/mL), 0.1 M phosphate buffer pH 7.4, and test compound (final concentration 1 μM; diluted from 10 mM stock solution to give a final DMSO concentration of 0.1%) were incubated at 37° C. prior to the addition of Nicotinamide adenine dinucleotide phosphate (NADPH, final concentration 1 mM) to initiate the reaction. The final incubation volume was 100 μL. A control incubation was included for each compound tested, where 0.1 M phosphate buffer pH 7.4 was added instead of NADPH. […]
Each compound was incubated for 0, 5, 15, 30, 45 or 60 minutes. The reactions were stopped by the addition of 100 μL ice-cold acetonitrile containing internal standard (0.001 mM glipizide) at the appropriate time points. The incubation plates were centrifuged at 4000 rpm for 15 minutes at 4° C. to precipitate the protein and 0.1 mL aliquots were analysed using LC-MS/MS, with the conditions shown in the following table.
From a plot of the natural logarithm of the peak area ratio (i.e., the ratio of compound peak area:internal standard peak area) against time, the gradient of the line was determined.

[3] = pH 7.4, human liver microsomes 0.25 mg/mL protein, 5 time points 0-60 min, one replicate, read-out: T1/2 (1)
[4] = pH 7.4, human liver microsomes 0.5 mg/mL protein, 6 time points 0-60 min, two replicates, read-out: T1/2 (2)

SMILES | inhibition at 5 min, 30 µM ([1]; hERG tail current) | half-life at 1 μM [2, 3] | inhibition at 5 min, 30 µM ([1]; a lab-scale batch was tested) | inhibition at 5 min, 30 µM ([1]; a mid-scale batch was tested) | half-life at 1 μM [2, 4]
Cc1cc(S(=O)(=O)NC2CCC(C)(O)CC2)ccc1-c1ccc(F)cc1F (single isomer, unassigned) [REF001, reference compound] | 60% | 0.717 h |  |  | 
Cc1cc(S(=O)(=O)N[C@H]2CC[C@H](O)CC2)ccc1-c1ccc(F)cc1F [ABD735] | 62.5% | 8.73 h |  |  | 
O=S(=O)(N[C@H]1CC[C@H](O)CC1)c1ccc(-c2ncc(Cl)cc2Cl)cc1 [ABD836, reference compound] | 50% | > 15 h |  |  | 
C[C@]1(O)CC[C@@H](NS(=O)(=O)c2ccc(-c3ccc(F)cc3F)cc2)CC1 [ABD899, reference compound] |  | 1.2 h | 100% | 53% | 1.75 h
C[C@]1(O)CC[C@H](NS(=O)(=O)c2ccc(-c3ccc(F)cc3F)cc2)CC1 [ABD900, reference compound] | 51% |  |  |  | 1.45 h
C[C@]1(O)CC[C@H](NS(=O)(=O)c2ccc(-c3ccc(Cl)cc3C#N)cc2)CC1 [HMC-C-01-A, 4′-Chloro-2′-cyano-N-((1r,4r)-4-hydroxy-4-methylcyclohexyl)biphenyl-4-sulfonamide] | 79% | 1.37 h |  |  | 
C[C@]1(O)CC[C@@H](NS(=O)(=O)c2ccc(-c3ccc(Cl)cc3C#N)cc2)CC1 [HMC-C-01-B, 4′-Chloro-2′-cyano-N-((1s,4s)-4-hydroxy-4-methylcyclohexyl)-[1,1′-biphenyl]-4-sulfonamide] | 74% |  |  |  | 1.17 h
C[C@]1(O)CC[C@H](NS(=O)(=O)c2ccc(-c3ccc(F)cc3C(F)(F)F)cc2)CC1 [HMC-C-02-A, 4′-Fluoro-N-((1r,4r)-4-hydroxy-4-methylcyclohexyl)-2′-(trifluoromethyl)biphenyl-4-sulfonamide] | 57% | 0.917 h |  |  | 
C[C@]1(O)CC[C@@H](NS(=O)(=O)c2ccc(-c3ccc(F)cc3C(F)(F)F)cc2)CC1 [HMC-C-02-B, 4′-Fluoro-N-((1s,4s)-4-hydroxy-4-methylcyclohexyl)-2′-(trifluoromethyl)-[1,1′-biphenyl]-4-sulfonamide] | 94% |  |  |  | 0.3 h
C[C@]1(O)CC[C@H](NS(=O)(=O)c2ccc(-c3c(F)cc(F)cc3F)cc2)CC1 [HMC-C-03-A, 2′,4′,6′-Trifluoro-N-((1r,4r)-4-hydroxy-4-methylcyclohexyl)biphenyl-4-sulfonamide] | 45% | 1.4 h |  |  | 
C[C@]1(O)CC[C@@H](NS(=O)(=O)c2ccc(-c3c(F)cc(F)cc3F)cc2)CC1 [HMC-C-03-B, 2′,4′,6′-Trifluoro-N-((1s,4s)-4-hydroxy-4-methylcyclohexyl)-[1,1′-biphenyl]-4-sulfonamide] | 36% |  |  |  | 0.8 h
C[C@]1(O)CC[C@H](NS(=O)(=O)c2ccc(-c3ccc(F)cc3F)c(F)c2)CC1 [HMC-C-04-A, 2,2′,4′-Trifluoro-N-((1r,4r)-4-hydroxy-4-methylcyclohexyl)-[1,1′-biphenyl]-4-sulfonamide] | 69% |  |  |  | 1.67 h
C[C@]1(O)CC[C@@H](NS(=O)(=O)c2ccc(-c3ccc(F)cc3F)c(F)c2)CC1 [HMC-C-04-B, 2,2′,4′-Trifluoro-N-((1s,4s)-4-hydroxy-4-methylcyclohexyl)-[1,1′-biphenyl]-4-sulfonamide] |  |  |  |  | 1.78 h
C[C@]1(O)CC[C@H](NS(=O)(=O)c2ccc(-c3ncc(F)cc3F)c(F)c2)CC1 [HMC-N-01-A, 4-(3,5-Difluoropyridin-2-yl)-3-fluoro-N-((1r,4r)-4-hydroxy-4-methylcyclohexyl)benzenesulfonamide] | 2% | 2.92 h |  |  | 
C[C@]1(O)CC[C@@H](NS(=O)(=O)c2ccc(-c3ncc(F)cc3F)c(F)c2)CC1 [HMC-N-01-B, 4-(3,5-Difluoropyridin-2-yl)-3-fluoro-N-((1s,4s)-4-hydroxy-4-methylcyclohexyl)benzenesulfonamide] | 27% |  |  |  | 2.12 h
C[C@]1(O)CC[C@H](NS(=O)(=O)c2ccc(-c3ncc(F)cc3F)cc2)CC1 [HMC-N-02-A, 4-(3,5-Difluoropyridin-2-yl)-N-((1r,4r)-4-hydroxy-4-methylcyclohexyl)benzenesulfonamide] | 31% | 6.12 h |  |  | 
C[C@]1(O)CC[C@@H](NS(=O)(=O)c2ccc(-c3ncc(F)cc3F)cc2)CC1 [HMC-N-02-B, 4-(3,5-Difluoropyridin-2-yl)-N-((1s,4s)-4-hydroxy-4-methylcyclohexyl)benzenesulfonamide] | 23% |  |  |  | 2.8 h
C[C@]1(O)CC[C@H](NS(=O)(=O)c2ccc(-c3ncc(Cl)cc3Cl)cc2)CC1 [HMC-N-03-A, 4-(3,5-Dichloropyridin-2-yl)-N-((1r,4r)-4-hydroxy-4-methylcyclohexyl)benzenesulfonamide] | 13% | 4.3 h |  |  | 
C[C@]1(O)CC[C@@H](NS(=O)(=O)c2ccc(-c3ncc(Cl)cc3Cl)cc2)CC1 [HMC-N-03-B, 4-(3,5-Dichloropyridin-2-yl)-N-((1s,4s)-4-hydroxy-4-methylcyclohexyl)benzenesulfonamide] | 47% |  |  |  | 1.17 h
C[C@]1(O)CC[C@H](NS(=O)(=O)c2ccc(-c3ncc(Cl)cc3Cl)c(F)c2)CC1 [HMC-N-04-A, 4-(3,5-Dichloropyridin-2-yl)-3-fluoro-N-((1r,4r)-4-hydroxy-4-methylcyclohexyl)benzenesulfonamide] | 26% | 2.6 h |  |  | 
